Measurements taken from publication PMC9823097, “Dysregulation of PRMT5 in chronic lymphocytic leukemia promotes progression with high risk of Richter’s transformation” (Nature Communications, 2023).

Experiments:
HG3 cells = experiment: Cell growth curves over 12 days, HG3; assay type: cell-based; details: for anti-proliferative potency compared to PRT382: HG3
Procedure: (§1) Live cells/mL were counted on days 3, 6, 10, and 12. […] The split factor was calculated at indicated time points by dividing the counted cells/mL by 3E5. Cell growth was extrapolated over time by multiplying the subsequent cell count by the previous split factor. Cell growth is plotted as fold change relative to DMSO-treated cells.

Mec-1 cells = experiment: Cell growth curves over 12 days, Mec-1; assay type: cell-based; details: for anti-proliferative potency compared to PRT382: Mec-1
Procedure: as §1

Nc1nc2cc(CC[C@H]3C[C@@H](n4ccc5c(N)ncnc54)[C@H](O)[C@@H]3O)ccc2cc1Br [JNJ-64619178]
Rep 1 Live Cells [Fold Change] (HG3 cells; HG3, 1 nM, day 0): 1 Fold Change | Rep 2 Live Cells [Fold Change] (HG3 cells; HG3, 1 nM, day 0): 1 Fold Change | Rep 1 Live Cells [Fold Change] (HG3 cells; HG3, 1 nM, day 3): 6.233 Fold Change | Rep 2 Live Cells [Fold Change] (HG3 cells; HG3, 1 nM, day 3): 6.733 Fold Change | Rep 1 Live Cells [Fold Change] (HG3 cells; HG3, 1 nM, day 6): 33.0367 Fold Change | Rep 2 Live Cells [Fold Change] (HG3 cells; HG3, 1 nM, day 6): 39.5022 Fold Change | Rep 1 Live Cells [Fold Change] (HG3 cells; HG3, 1 nM, day 10): 290.723 Fold Change | Rep 2 Live Cells [Fold Change] (HG3 cells; HG3, 1 nM, day 10): 314.043 Fold Change | Rep 1 Live Cells [Fold Change] (HG3 cells; HG3, 1 nM, day 12): 802.395 Fold Change | Rep 2 Live Cells [Fold Change] (HG3 cells; HG3, 1 nM, day 12): 1088.68 Fold Change | Rep 1 Live Cells [Fold Change] (HG3 cells; HG3, 10 nM, day 0): 1 Fold Change | Rep 2 Live Cells [Fold Change] (HG3 cells; HG3, 10 nM, day 0): 1 Fold Change | Rep 1 Live Cells [Fold Change] (HG3 cells; HG3, 10 nM, day 3): 4.733 Fold Change | Rep 2 Live Cells [Fold Change] (HG3 cells; HG3, 10 nM, day 3): 5.9 Fold Change | Rep 1 Live Cells [Fold Change] (HG3 cells; HG3, 10 nM, day 6): 4.86 Fold Change | Rep 2 Live Cells [Fold Change] (HG3 cells; HG3, 10 nM, day 6): 7.375 Fold Change | Rep 1 Live Cells [Fold Change] (HG3 cells; HG3, 10 nM, day 10): 4.276 Fold Change | Rep 2 Live Cells [Fold Change] (HG3 cells; HG3, 10 nM, day 10): 8.039 Fold Change | Rep 1 Live Cells [Fold Change] (HG3 cells; HG3, 10 nM, day 12): 4.945 Fold Change | Rep 2 Live Cells [Fold Change] (HG3 cells; HG3, 10 nM, day 12): 8.633 Fold Change | Rep 1 Live Cells [Fold Change] (HG3 cells; HG3, 100 nM, day 0): 1 Fold Change | Rep 2 Live Cells [Fold Change] (HG3 cells; HG3, 100 nM, day 0): 1 Fold Change | Rep 1 Live Cells [Fold Change] (HG3 cells; HG3, 100 nM, day 3): 4.133 Fold Change | Rep 2 Live Cells [Fold Change] (HG3 cells; HG3, 100 nM, day 3): 5.6 Fold Change | Rep 1 Live Cells [Fold Change] (HG3 cells; HG3, 100 nM, day 6): 4.064 Fold Change | Rep 2 Live Cells [Fold Change] (HG3 cells; HG3, 100 nM, day 6): 5.619 Fold Change | Rep 1 Live Cells [Fold Change] (HG3 cells; HG3, 100 nM, day 10): 2.5 Fold Change | Rep 2 Live Cells [Fold Change] (HG3 cells; HG3, 100 nM, day 10): 4.6354 Fold Change | Rep 1 Live Cells [Fold Change] (HG3 cells; HG3, 100 nM, day 12): 1.958 Fold Change | Rep 2 Live Cells [Fold Change] (HG3 cells; HG3, 100 nM, day 12): 5.387 Fold Change | Rep 1 Live Cells [Fold Change] (HG3 cells; HG3, 1 µM, day 0): 1 Fold Change | Rep 2 Live Cells [Fold Change] (HG3 cells; HG3, 1 µM, day 0): 1 Fold Change | Rep 1 Live Cells [Fold Change] (HG3 cells; HG3, 1 µM, day 3): 1.6 Fold Change | Rep 2 Live Cells [Fold Change] (HG3 cells; HG3, 1 µM, day 3): 2.303 Fold Change | Rep 1 Live Cells [Fold Change] (HG3 cells; HG3, 1 µM, day 6): 1.024 Fold Change | Rep 2 Live Cells [Fold Change] (HG3 cells; HG3, 1 µM, day 6): 1.536 Fold Change | Rep 1 Live Cells [Fold Change] (HG3 cells; HG3, 1 µM, day 10): 3.369 Fold Change | Rep 2 Live Cells [Fold Change] (HG3 cells; HG3, 1 µM, day 10): 0.4381 Fold Change | Rep 1 Live Cells [Fold Change] (HG3 cells; HG3, 1 µM, day 12): 2.347 Fold Change | Rep 2 Live Cells [Fold Change] (HG3 cells; HG3, 1 µM, day 12): 3.411 Fold Change | anti-proliferative potency compared to PRT382 (HG3 cells; high doses (1µM)): similar | anti-proliferative potency compared to PRT382 (HG3 cells; lower doses (10nM, 100nM)): more potent | Rep 1 Live Cells [Fold Change] (Mec-1 cells; Mec-1, 1 nM, day 0): 1 Fold Change | Rep 2 Live Cells [Fold Change] (Mec-1 cells; Mec-1, 1 nM, day 0): 1 Fold Change | Rep 1 Live Cells [Fold Change] (Mec-1 cells; Mec-1, 1 nM, day 3): 6.73 Fold Change | Rep 2 Live Cells [Fold Change] (Mec-1 cells; Mec-1, 1 nM, day 3): 5.77 Fold Change | Rep 1 Live Cells [Fold Change] (Mec-1 cells; Mec-1, 1 nM, day 6): 33.4 Fold Change | Rep 2 Live Cells [Fold Change] (Mec-1 cells; Mec-1, 1 nM, day 6): 34.4 Fold Change | Rep 1 Live Cells [Fold Change] (Mec-1 cells; Mec-1, 1 nM, day 10): 194 Fold Change | Rep 2 Live Cells [Fold Change] (Mec-1 cells; Mec-1, 1 nM, day 10): 282 Fold Change | Rep 1 Live Cells [Fold Change] (Mec-1 cells; Mec-1, 1 nM, day 12): 737 Fold Change | Rep 2 Live Cells [Fold Change] (Mec-1 cells; Mec-1, 1 nM, day 12): 940 Fold Change | Rep 1 Live Cells [Fold Change] (Mec-1 cells; Mec-1, 10 nM, day 0): 1 Fold Change | Rep 2 Live Cells [Fold Change] (Mec-1 cells; Mec-1, 10 nM, day 0): 1 Fold Change | Rep 1 Live Cells [Fold Change] (Mec-1 cells; Mec-1, 10 nM, day 3): 4.7 Fold Change | Rep 2 Live Cells [Fold Change] (Mec-1 cells; Mec-1, 10 nM, day 3): 4.73 Fold Change | Rep 1 Live Cells [Fold Change] (Mec-1 cells; Mec-1, 10 nM, day 6): 4.72 Fold Change | Rep 2 Live Cells [Fold Change] (Mec-1 cells; Mec-1, 10 nM, day 6): 5.92 Fold Change | Rep 1 Live Cells [Fold Change] (Mec-1 cells; Mec-1, 10 nM, day 10): 4.93 Fold Change | Rep 2 Live Cells [Fold Change] (Mec-1 cells; Mec-1, 10 nM, day 10): 4.62 Fold Change | Rep 1 Live Cells [Fold Change] (Mec-1 cells; Mec-1, 10 nM, day 12): 3.86 Fold Change | Rep 2 Live Cells [Fold Change] (Mec-1 cells; Mec-1, 10 nM, day 12): 2.38 Fold Change | Rep 1 Live Cells [Fold Change] (Mec-1 cells; Mec-1, 100 nM, day 0): 1 Fold Change | Rep 2 Live Cells [Fold Change] (Mec-1 cells; Mec-1, 100 nM, day 0): 1 Fold Change | Rep 1 Live Cells [Fold Change] (Mec-1 cells; Mec-1, 100 nM, day 3): 4.17 Fold Change | Rep 2 Live Cells [Fold Change] (Mec-1 cells; Mec-1, 100 nM, day 3): 4.67 Fold Change | Rep 1 Live Cells [Fold Change] (Mec-1 cells; Mec-1, 100 nM, day 6): 3.53 Fold Change | Rep 2 Live Cells [Fold Change] (Mec-1 cells; Mec-1, 100 nM, day 6): 4.53 Fold Change | Rep 1 Live Cells [Fold Change] (Mec-1 cells; Mec-1, 100 nM, day 10): 2.56 Fold Change | Rep 2 Live Cells [Fold Change] (Mec-1 cells; Mec-1, 100 nM, day 10): 2.9 Fold Change | Rep 1 Live Cells [Fold Change] (Mec-1 cells; Mec-1, 100 nM, day 12): 1.15 Fold Change | Rep 2 Live Cells [Fold Change] (Mec-1 cells; Mec-1, 100 nM, day 12): 1.27 Fold Change | Rep 1 Live Cells [Fold Change] (Mec-1 cells; Mec-1, 1 µM, day 0): 1 Fold Change | Rep 2 Live Cells [Fold Change] (Mec-1 cells; Mec-1, 1 µM, day 0): 1 Fold Change | Rep 1 Live Cells [Fold Change] (Mec-1 cells; Mec-1, 1 µM, day 3): 1.48 Fold Change | Rep 2 Live Cells [Fold Change] (Mec-1 cells; Mec-1, 1 µM, day 3): 1.38 Fold Change | Rep 1 Live Cells [Fold Change] (Mec-1 cells; Mec-1, 1 µM, day 6): 0.841 Fold Change | Rep 2 Live Cells [Fold Change] (Mec-1 cells; Mec-1, 1 µM, day 6): 2.27 Fold Change | Rep 1 Live Cells [Fold Change] (Mec-1 cells; Mec-1, 1 µM, day 10): 1.28 Fold Change | Rep 2 Live Cells [Fold Change] (Mec-1 cells; Mec-1, 1 µM, day 10): 1.57 Fold Change | Rep 1 Live Cells [Fold Change] (Mec-1 cells; Mec-1, 1 µM, day 12): 0.808 Fold Change | Rep 2 Live Cells [Fold Change] (Mec-1 cells; Mec-1, 1 µM, day 12): 0.765 Fold Change | anti-proliferative potency compared to PRT382 (Mec-1 cells; high doses (1µM)): similar | anti-proliferative potency compared to PRT382 (Mec-1 cells; lower doses (10nM, 100nM)): more potent
